According to patent US20180280377A1, “Imidazo[4,5-c]quinolin-2-one Compounds and Their Use in Treating Cancer” (ASTRAZENECA AB, priority 2015, published 2018):

Assays:
Format in all cases: cell-based
[1] = biological target: T1, ATR (Homo sapiens, UniProt Q13535); assay: ATR cellular potency assay (pChk1 Ser345 in HT29 cells after 4NQO); details: pChk1 (Ser 345); Table 2; read-out: Assay b) ATR Cell IC50
T1 construct: endogenous in cells; host or cells: HT29 cells (ECACC #85061109)

[2] = biological target: PI3Kα (Homo sapiens, UniProt P42336); assay: PI3K cellular potency assay (phospho-Akt T308 in BT474 cells, ELISA); details: 2 h, phospho-Akt (T308); Table 2; read-out: Assay c) PI3Kα Cell IC50
Procedure: The following assays were used to measure the effects of the compounds of the present invention: a) ATM cellular potency assay; b) PI3K cellular potency assay; c) mTOR cellular potency assay; d) ATR cellular potency assay. During the description of the assays, generally: • i. […] IC50 values were calculated using a smart fitting model in Genedata.
This assay was used to measure PI3K-α inhibition in cells. PDK1 was identified as the upstream activation loop kinase of protein kinase B (Akt1), which is essential for the activation of PKB. Activation of the lipid kinase phosphoinositide 3 kinase (PI3K) is critical for the activation of PKB by PDK1.
Following ligand stimulation of receptor tyrosine kinases, PI3K is activated, which converts PIP2 to PIP3, which is bound by the PH domain of PDK1 resulting in recruitment of PDK1 to the plasma membrane where it phosphorylates AKT at Thr308 in the activation loop.
The aim of this cell-based mode of action assay is to identify compounds that inhibit PDK activity or recruitment of PDK1 to membrane by inhibiting PI3K activity. Phosphorylation of phospho-Akt (T308) in BT474c cells following treatment with compounds for 2 h is a direct measure of PDK1 and indirect measure of PI3K activity.
The following morning compounds in 100% DMSO were added to assay plates by acoustic dispensing.
Plates were incubated over night at 4° C. The next day the plates were washed with PBS buffer containing 0.05% Tween 20 and further incubated with a mouse monoclonal anti-phospho AKT T308 for 2 h. Plates were washed again as above before addition of a horse anti-mouse-HRP conjugated secondary antibody. […] The developed fluorescent product was stopped after 60 minutes by addition of Stop solution to the wells.

[3] = biological target: T2, ATM (Homo sapiens, UniProt Q13315); assay: ATM cellular potency assay (pATM Ser1981 in irradiated HT29 cells); details: 1 h compound, X-ray irradiation, pATM (Ser1981); Table 2; read-out: Assay a) ATM Cell IC50
T2 construct: endogenous in cells; host or cells: HT29 cells (ECACC #85061109)

[4] = biological target: T3, mTOR (Homo sapiens, UniProt P42345); assay: mTOR cellular potency assay (phospho-AKT Ser473 in MDA-MB-468 cells); details: MDA-MB-468 cells, 2 h, phospho-AKT Ser473; Table 2; read-out: Assay d) mTOR Cell IC50
T3 construct: phosphorylation of the Akt protein at Ser473 (AKT lies downstream of PI3Kα in the signal transduction pathway) in the MDA-MB-468 cells; endogenous in cells; host or cells: MDA-MB-468 cells (ATCC HTB 132)
Source text: The following assays were used to measure the effects of the compounds of the present invention: a) ATM cellular potency assay; b) PI3K cellular potency assay; c) mTOR cellular potency assay; d) ATR cellular potency assay. During the description of the assays, generally: • i. The following abbreviations have been used: 4NQO=4-Nitroquinoline N-oxide; Ab=Antibody; BSA=Bovine Serum Albumin; CO2=Carbon Dioxide; DMEM=Dulbecco's Modified Eagle Medium; DMSO=Dimethyl Sulphoxide; EDTA=Ethylenediaminetetraacetic Acid; EGTA=Ethylene Glycol Tetraacetic Acid; ELISA=Enzyme-linked Immunosorbent Assay; EMEM=Eagle's Minimal Essential Medium; FBS=Foetal Bovine Serum; h=H(s); HRP=Horseradish Peroxidase; i.p.=intraperitoneal; PBS=Phosphate buffered saline; PBST=Phosphate buffered saline/Tween; TRIS=Tris(Hydroxymethyl)aminomethane; MTS reagent: [3-(4,5-dimethylthiazol-2-yl)-5-(3-carboxymethoxyphenyl)-2-(4-sulfophenyl)-2H-tetrazolium, inner salt, and an electron coupling reagent (phenazine methosulfate) PMS; s.c. sub-cutaneously. • ii. IC50 values were calculated using a smart fitting model in Genedata.
This assay was used to measure mTOR inhibition in cells. The aim of the phospho-AKT cell based mechanism of action assay using the Acumen Explorer is to identify inhibitors of either PI3Kα or mTOR-Rictor (Rapamycin insensitive companion of mTOR). This is measured by any decrease in the phosphorylation of the Akt protein at Ser473 (AKT lies downstream of PI3Kα in the signal transduction pathway) in the MDA-MB-468 cells following treatment with compound.
MDA-MB-468 cells (human breast adenocarcinoma #ATCC HTB 132) were seeded at 1500 cells/well in 40 μl of DMEM containing 10% FBS and 1% glutamine into Greiner 384 well black flat-bottomed plates. Cell plates were incubated for 18 h in a 37° C. incubator before dosing with compounds of Formula (I) in 100% DMSO using acoustic dispensing. Compounds were dosed in a 12 point concentration range into a randomised plate map. Control wells were generated either by dosing of 100% DMSO (max signal) or addition of a reference compound (a PI3K-62 inhibitor) that completely eliminated the pAKT signal (min control). Plates were incubated at 37° C. for 2 h; cells were then fixed by the addition of […] of a 3.7% formaldehyde solution. After 30 minutes the plates were washed with PBS using a Tecan PW384 plate washer. Wells were blocked and cells permeabilised with the addition of 40 μl of PBS containing 0.5% Tween20 and 1% Marvel™ (dried milk powder) and incubated for 60 minutes at r.t. The plates were washed with PBS containing 0.5% (v/v) Tween20 and 20 μl rabbit anti-phospho AKT Ser473 (Cell Signalling Technologies, #3787) in same PBS-Tween+1% MarvelTM was added and incubated overnight at 4° C.
Plates were washed 3 times with PBS+0.05% Tween 20 using a Tecan PW384. 20 μl of secondary antibody Alexa Fluor 488 anti-Rabbit (Molecular Probes, # A11008) diluted in PBS+0.05% Tween20 containing 1% Marvel™ was added to each well and incubated for 1 h at r.t. Plates were washed three times as before then 20 μl PBS added to each well and plates sealed with a black plate sealer.
The plates were read on an Acumen plate reader as soon as possible, measuring green fluorescence after excitation with 488 nm laser. Using this system IC50 values were generated and quality of plates was determined by control wells. Reference compounds were run each time to monitor assay performance.

T1 sequence (Q13535 whole entry): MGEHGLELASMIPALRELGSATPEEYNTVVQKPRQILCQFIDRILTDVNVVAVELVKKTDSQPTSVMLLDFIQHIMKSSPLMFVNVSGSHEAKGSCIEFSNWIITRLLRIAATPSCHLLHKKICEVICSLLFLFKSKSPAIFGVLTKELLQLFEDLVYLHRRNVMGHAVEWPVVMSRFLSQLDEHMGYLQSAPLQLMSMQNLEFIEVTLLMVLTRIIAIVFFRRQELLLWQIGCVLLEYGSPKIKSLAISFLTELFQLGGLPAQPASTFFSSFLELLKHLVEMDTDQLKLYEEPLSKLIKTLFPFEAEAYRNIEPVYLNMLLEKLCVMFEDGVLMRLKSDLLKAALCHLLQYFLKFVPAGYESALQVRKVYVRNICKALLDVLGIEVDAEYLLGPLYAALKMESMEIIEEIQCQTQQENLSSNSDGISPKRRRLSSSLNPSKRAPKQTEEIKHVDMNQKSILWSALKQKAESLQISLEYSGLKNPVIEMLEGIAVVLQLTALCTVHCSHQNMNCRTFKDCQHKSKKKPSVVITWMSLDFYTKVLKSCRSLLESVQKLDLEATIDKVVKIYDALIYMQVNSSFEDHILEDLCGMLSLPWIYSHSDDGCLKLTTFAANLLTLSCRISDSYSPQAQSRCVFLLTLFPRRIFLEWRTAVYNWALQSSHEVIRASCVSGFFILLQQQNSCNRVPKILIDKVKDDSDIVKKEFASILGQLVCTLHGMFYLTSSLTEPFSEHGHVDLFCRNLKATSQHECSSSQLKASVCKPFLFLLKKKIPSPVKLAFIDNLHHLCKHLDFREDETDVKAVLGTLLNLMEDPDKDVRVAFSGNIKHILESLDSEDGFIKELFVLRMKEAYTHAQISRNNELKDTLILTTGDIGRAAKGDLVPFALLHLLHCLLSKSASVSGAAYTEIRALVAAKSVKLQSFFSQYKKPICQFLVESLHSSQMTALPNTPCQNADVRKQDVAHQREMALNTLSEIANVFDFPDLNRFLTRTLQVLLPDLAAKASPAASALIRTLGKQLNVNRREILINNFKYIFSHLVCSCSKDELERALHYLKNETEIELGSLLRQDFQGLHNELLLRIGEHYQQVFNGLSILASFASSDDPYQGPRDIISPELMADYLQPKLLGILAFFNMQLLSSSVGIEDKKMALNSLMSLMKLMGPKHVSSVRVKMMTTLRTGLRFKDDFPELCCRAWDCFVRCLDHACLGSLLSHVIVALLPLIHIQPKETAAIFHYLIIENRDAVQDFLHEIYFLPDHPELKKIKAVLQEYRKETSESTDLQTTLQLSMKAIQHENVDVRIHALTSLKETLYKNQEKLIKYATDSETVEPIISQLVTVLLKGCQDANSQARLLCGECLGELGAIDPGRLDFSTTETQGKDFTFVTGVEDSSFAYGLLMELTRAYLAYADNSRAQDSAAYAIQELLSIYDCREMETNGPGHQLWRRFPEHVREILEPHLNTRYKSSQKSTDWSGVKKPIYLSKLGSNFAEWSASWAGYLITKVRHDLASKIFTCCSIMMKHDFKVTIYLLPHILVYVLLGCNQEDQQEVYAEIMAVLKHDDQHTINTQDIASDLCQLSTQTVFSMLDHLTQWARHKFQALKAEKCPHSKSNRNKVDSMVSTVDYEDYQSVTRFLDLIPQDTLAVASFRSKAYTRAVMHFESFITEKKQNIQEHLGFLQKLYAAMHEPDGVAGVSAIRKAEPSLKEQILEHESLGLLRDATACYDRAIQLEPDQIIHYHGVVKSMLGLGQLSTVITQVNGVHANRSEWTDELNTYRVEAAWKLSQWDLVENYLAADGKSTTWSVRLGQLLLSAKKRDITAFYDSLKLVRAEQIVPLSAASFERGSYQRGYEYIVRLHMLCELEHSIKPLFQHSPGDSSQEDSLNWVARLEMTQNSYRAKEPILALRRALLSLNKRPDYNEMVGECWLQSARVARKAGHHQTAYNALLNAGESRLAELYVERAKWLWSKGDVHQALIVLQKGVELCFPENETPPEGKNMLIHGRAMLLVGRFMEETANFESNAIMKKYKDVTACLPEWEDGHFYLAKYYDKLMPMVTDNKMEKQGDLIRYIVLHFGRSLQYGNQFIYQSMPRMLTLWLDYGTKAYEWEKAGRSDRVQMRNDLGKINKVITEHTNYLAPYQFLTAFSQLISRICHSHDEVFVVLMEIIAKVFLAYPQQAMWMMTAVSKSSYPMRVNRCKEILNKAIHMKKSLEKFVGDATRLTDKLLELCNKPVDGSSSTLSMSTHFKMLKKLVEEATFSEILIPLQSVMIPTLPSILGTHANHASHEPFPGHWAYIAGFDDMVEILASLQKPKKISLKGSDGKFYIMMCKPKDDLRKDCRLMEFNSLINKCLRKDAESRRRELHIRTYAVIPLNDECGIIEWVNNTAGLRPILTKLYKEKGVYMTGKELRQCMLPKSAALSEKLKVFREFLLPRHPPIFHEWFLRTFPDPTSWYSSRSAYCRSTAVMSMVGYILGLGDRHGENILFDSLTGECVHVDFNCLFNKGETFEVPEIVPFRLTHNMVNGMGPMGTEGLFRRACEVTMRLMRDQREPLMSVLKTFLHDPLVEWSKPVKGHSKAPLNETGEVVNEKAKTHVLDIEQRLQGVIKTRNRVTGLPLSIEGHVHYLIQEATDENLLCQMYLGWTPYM
T1 sequence (Q8WXE1 whole entry partner): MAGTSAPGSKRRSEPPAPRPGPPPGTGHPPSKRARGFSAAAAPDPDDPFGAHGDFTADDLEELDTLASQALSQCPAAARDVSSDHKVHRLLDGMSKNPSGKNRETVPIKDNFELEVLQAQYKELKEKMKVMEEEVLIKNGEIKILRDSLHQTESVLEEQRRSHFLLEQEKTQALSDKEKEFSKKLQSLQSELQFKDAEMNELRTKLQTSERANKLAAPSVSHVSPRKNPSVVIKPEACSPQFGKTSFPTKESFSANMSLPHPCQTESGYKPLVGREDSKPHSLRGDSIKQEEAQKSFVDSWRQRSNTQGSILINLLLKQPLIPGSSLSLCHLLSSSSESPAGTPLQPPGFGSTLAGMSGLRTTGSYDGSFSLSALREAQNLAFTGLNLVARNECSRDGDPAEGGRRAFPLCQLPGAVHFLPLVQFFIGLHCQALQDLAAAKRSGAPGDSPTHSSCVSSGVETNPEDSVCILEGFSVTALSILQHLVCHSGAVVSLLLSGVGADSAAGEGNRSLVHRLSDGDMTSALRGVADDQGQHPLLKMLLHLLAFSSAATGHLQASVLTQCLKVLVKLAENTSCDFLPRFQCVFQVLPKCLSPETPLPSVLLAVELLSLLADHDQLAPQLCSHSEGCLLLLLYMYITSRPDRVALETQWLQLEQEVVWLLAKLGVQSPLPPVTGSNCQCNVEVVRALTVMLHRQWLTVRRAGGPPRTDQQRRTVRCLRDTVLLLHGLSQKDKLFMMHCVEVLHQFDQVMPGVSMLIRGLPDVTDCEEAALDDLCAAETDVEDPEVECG

IC50 [1] [nM]	IC50 [2] [nM]	IC50 [3] [nM]	IC50 [4] [nM]	Structure (SMILES)
> 30000	19300			CC(C)n1c(=O)n(C)c2cnc3cc(F)c(-c4ccc(N5CCC(N(C)C)CC5)nc4)cc3c21 [Example 3, 8-[6-[4-(dimethylamino)-1-piperidyl]-3-pyridyl]-7-fluoro-1-isopropyl-3-methyl-imidazo[4,5-c]quinolin-2-one]
	243			CC(C)n1c(=O)n(C)c2cnc3ccc(-c4ccc(N5CC(N(C)C)C5)nc4)cc3c21 [Example 4, 8-[6-[3-(dimethylamino)azetidin-1-yl]-3-pyridyl]-1-isopropyl-3-methyl-imidazo[4,5-c]quinolin-2-one]
	470			CC(C)n1c(=O)n(C)c2cnc3ccc(-c4ccc(N5CC[C@@H](N(C)C)C5)nc4)cc3c21 [Example 1, 8-[6-[(3R)-3-(Dimethylamino)pyrrolidin-1-yl]-3-pyridyl]-1-isopropyl-3-methyl-imidazo[4,5-c]quinolin-2-one]
17500		12.7		CO[C@H]1C[C@@H](n2c(=O)n(C)c3cnc4ccc(-c5ccc(N6CC[C@H](N(C)C)C6)nc5)cc4c32)C1 [Example 18]
2520		6.61		CO[C@H]1CC[C@H](n2c(=O)n(C)c3cnc4ccc(-c5ccc(N6CC(N(C)C)C6)nc5)cc4c32)CC1 [Example 25, 8-[6-[3-(dimethylamino)azetidin-1-yl]-3-pyridyl]-1-(trans-4-methoxycyclohexyl)-3-methyl-imidazo[4,5-c]quinolin-2-one]

More lines, now with the values behind:

Structure (SMILES)	IC50 [1] [nM]	IC50 [2] [nM]	IC50 [3] [nM]	IC50 [4] [nM]
CN(C)C1CCN(c2ccc(-c3cc4c(cc3F)ncc3c4n([C@@H]4CCCOC4)c(=O)n3C)cn2)CC1 [Example 40, 8-[6-[4-(dimethylamino)-1-piperidyl]-3-pyridyl]-7-fluoro-3-methyl-1-[(3R)-tetrahydropyran-3-yl]imidazo[4,5-c]quinolin-2-one]	> 30000		3.24	22100
CO[C@H]1CC[C@H](n2c(=O)n(C)c3cnc4ccc(-c5ccc(N6CCC(N(C)C)CC6)nc5)cc4c32)C1 (single isomer, unassigned) [Example 33, 8-[6-[4-(dimethylamino)-1-piperidyl]-3-pyridyl]-1-[trans-3-methoxycyclopentyl]-3-methyl-imidazo[4,5-c]quinolin-2-one]	> 25700	1090	0.332	
CN(C)C1CCN(c2ccc(-c3ccc4ncc5c(c4c3)n([C@H]3CCCOC3)c(=O)n5C)cn2)CC1 [Example 35, 8-[6-[4-(dimethylamino)-1-piperidyl]-3-pyridyl]-3-methyl-1[(3S)-tetrahydropyran-3-yl]imidazo[4,5-c]quinolin-2-one]	> 30000		1.4	16500
CO[C@@H]1CCC[C@H](n2c(=O)n(C)c3cnc4ccc(-c5ccc(N6CCC(N(C)C)CC6)nc5)cc4c32)C1 (single isomer, unassigned) [Example 45]	> 30000		0.618	
CO[C@H]1C[C@@H](n2c(=O)n(C)c3cnc4cc(F)c(-c5ccc(N6CC[C@@H](N(C)C)C6)nc5)cc4c32)C1 [Example 6, 8-[6-[(3R)-3-(Dimethylamino)pyrrolidin-1-yl]-3-pyridyl]-7-fluoro-1-(cis-3-methoxycyclobutyl)-3-methyl-imidazo[4,5-c]quinolin-2-one]	> 30000		1.7	
CN(C)C1CCN(c2ccc(-c3ccc4ncc5c(c4c3)n([C@@H]3CCCOC3)c(=O)n5C)cn2)CC1 [Example 34, 8-[6-[4-(dimethylamino)-1-piperidyl]-3-pyridyl]-3-methyl-1-[(3R)-tetrahydropyran-3-yl]imidazo[4,5-c]quinolin-2-one]	> 30000		0.395	2000
CO[C@@H]1CCC[C@H](n2c(=O)n(C)c3cnc4ccc(-c5ccc(N6CC[C@@H](N(C)C)C6)nc5)cc4c32)C1 (single isomer, unassigned) [Example 48]	201		2.34	
